Data set [1] relates to healthy volunteers. The experiment in a line: Phase I healthy volunteer studies (prednisone challenge). It counts as in vivo, human. The note with it: for NLR: healthy volunteers with normal cortisol levels. An excerpt:
(§1) GR is a broad regulator of immunosuppressive transcriptional programs, so we first assessed the transcriptional effects of prednisone in and/or relacorilant in whole blood. […] These three genes are known to play a role in suppressing the cytotoxic T-cell response.

Data set [2] has as its system stimulated human PBMC’s. Put plainly: Activation of stimulated human PBMCs (PHA or αCD3+IL-12) +/- cortisol or cortisol + relacorilant. The note with it: for cytokines and chemokines (including IFNγ, IL-1β, IL-1α, IL-6): PHA or αCD3 stimulation; for cytokines and chemokines (including IFNγ, IL-1β, IL-1α, IL-6) / Expression of CD137 (aka 41-BB) on CD8+ cells: physiological cortisol; for CD3+ cell surface receptors: PHA stimulation; for inflammatory cytokines such as TNF-α: induced by stimulation; for inflammatory cytokines such as TNF-α / Expression of CD137 (aka 41-BB) on CD8+ cells: relacorilant in presence of cortisol; for CD8+ T-cell activation / pro-inflammatory cytokine secretion (TNFα, IFNγ): αCD3+IL-12; for CD8+ T-cell activation: P<0.001; for pro-inflammatory cytokine secretion (TNFα, IFNγ): TNFα P=0.006, IFNγ P<0.05. It counts as cell-based. The protocol: To understand the molecular consequences of GC activity on T-cell activation, the effects of cortisol and relacorilant were assessed on stimulated human PBMC’s. […] Expression of CD137 (aka 41-BB) on CD8+ cells was reduced by cortisol and rescued by relacorilant. […] Expression of CD137 (aka 41-BB) within CD8+ cells was reduced by cortisol and rescued by relacorilant. […] Thus, as shown also in FIG. 4, inflammatory cytokines such as TNF-α were induced by stimulation, suppressed by cortisol, and rescued by relacorilant. […] FIG. 6A and FIG. 6B show, following stimulation by phytohemagglutinin (PHA) (FIG. 6A) or αCD3 (FIG. 6B), suppression of cytokines and chemokines by cortisol and the restoration of cytokine/chemokine levels by relacorilant. (Supernatant IL-12 measurements were excluded from the analysis shown in FIG. 6B since the stimulation included recombinant IL-12.) Physiological levels of cortisol suppressed cytokines and chemokines, and this suppression was reversed by relacorilant.
(§2) Methods: Immune cell abundance and GR expression were assessed by IHC and calculated based on The Cancer Genome Atlas (TCGA) data. Human PBMCs were stimulated with αCD3+IL-12 +/- cortisol or cortisol + relacorilant. EG7 tumor-bearing mice were treated with αPD1 (RMP1-14) ip (intraperitoneally) Q5D (every fifth day) +/- daily relacorilant (QD). Whole blood mRNA was measured via Nanostring, hematology was performed using standard complete blood count assays, and cytokines were assessed by immunoassays in study NCT02762981.

In data set [3] the test system is patients with Cushing’s disease. The experiment in a line: Phase II study in patients with Cushing’s disease. It counts as in vivo, human.
Data set [4] concerns patients with advanced solid tumors. The experiment in a line: Phase I study of relacorilant+nab-paclitaxel in solid tumor patients (NCT02762981). The note with it: human, in vivo. How it is done:
as §1, §2

Data set [5] addresses T1, GR (Homo sapiens, UniProt P04150).
T1 sequence (P04150 1-777): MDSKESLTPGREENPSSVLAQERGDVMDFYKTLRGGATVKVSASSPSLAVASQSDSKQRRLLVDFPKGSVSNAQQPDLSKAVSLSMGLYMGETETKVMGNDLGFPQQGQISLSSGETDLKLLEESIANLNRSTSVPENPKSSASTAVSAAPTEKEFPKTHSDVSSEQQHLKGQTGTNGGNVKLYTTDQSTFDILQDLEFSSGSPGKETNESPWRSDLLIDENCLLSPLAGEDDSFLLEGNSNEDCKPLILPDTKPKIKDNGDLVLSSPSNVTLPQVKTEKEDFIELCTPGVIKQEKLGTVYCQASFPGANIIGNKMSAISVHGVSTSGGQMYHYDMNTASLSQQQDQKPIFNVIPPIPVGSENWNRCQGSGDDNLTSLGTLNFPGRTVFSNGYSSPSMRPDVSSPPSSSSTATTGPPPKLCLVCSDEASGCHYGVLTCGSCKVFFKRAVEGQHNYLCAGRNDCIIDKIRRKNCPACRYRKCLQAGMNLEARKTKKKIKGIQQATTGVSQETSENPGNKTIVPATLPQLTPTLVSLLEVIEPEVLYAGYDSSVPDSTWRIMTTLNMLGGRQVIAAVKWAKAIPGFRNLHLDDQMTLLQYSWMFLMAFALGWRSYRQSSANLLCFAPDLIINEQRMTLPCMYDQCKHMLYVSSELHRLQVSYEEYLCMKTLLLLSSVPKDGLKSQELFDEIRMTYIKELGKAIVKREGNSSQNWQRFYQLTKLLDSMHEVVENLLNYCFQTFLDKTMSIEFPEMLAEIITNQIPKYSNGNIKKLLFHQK
Put plainly: GR binding. The following applies: read-out: Half-maximal GR binding.

Data set [6] has as its system E.G7-OVA mouse lymphoma cells. Put plainly: Short term (7-day) EG7 pharmacodynamic study in B6 CD45.1 mice. Type of data set: in vivo. How it is done: A short term (7-day) EG7 pharmacodynamic study was conducted in female B6 CD45.1 mice to assess the effects of relacorilant+ αPD1 on T-cell proliferation and activation. Spleen and portions of tumor from B6 CD45.1 female mice subcutaneously inoculated with E.G7-OVA mouse lymphoma cells and treated with CORT125134 (30 mg/kg, administered p.o. once daily for 7 days) and RMP1-14 (10 mg/kg, administered i.p. on every fifth day for a total of two doses), alone and in combination, were analyzed via flow cytometry. Unlike the previous study, cell and cytokine analyses were synchronized and occurred before differences in tumor volume were detected (FIG. 14). Thus, in this study, changes in tumor volumes cannot influence the cytokine or T-cell measurements. There were no adverse effects of the treatments on clinical signs or body weight changes.
Antigen specific T-cells are key mediators of the anti-tumor immune response. The EG7 model expresses the model antigen ovalbumin. Antigen specific T-cells can be quantified by measuring T-cells that recognize ovalbumin. Cells which bind T-cells markers (such as anti-CD3 and anti-CD8) and bind labeled ovalbumin tetramers are thus considered antigen specific T-cells. Antigen specific T-cells were increased by the combination of relacorilant + αPD1 in the spleen and tumor (FIG. 15). […]

Data set [7] concerns the target T2, progesterone receptor (PR) (Homo sapiens, UniProt P06401).
T2 sequence (P06401 1-933): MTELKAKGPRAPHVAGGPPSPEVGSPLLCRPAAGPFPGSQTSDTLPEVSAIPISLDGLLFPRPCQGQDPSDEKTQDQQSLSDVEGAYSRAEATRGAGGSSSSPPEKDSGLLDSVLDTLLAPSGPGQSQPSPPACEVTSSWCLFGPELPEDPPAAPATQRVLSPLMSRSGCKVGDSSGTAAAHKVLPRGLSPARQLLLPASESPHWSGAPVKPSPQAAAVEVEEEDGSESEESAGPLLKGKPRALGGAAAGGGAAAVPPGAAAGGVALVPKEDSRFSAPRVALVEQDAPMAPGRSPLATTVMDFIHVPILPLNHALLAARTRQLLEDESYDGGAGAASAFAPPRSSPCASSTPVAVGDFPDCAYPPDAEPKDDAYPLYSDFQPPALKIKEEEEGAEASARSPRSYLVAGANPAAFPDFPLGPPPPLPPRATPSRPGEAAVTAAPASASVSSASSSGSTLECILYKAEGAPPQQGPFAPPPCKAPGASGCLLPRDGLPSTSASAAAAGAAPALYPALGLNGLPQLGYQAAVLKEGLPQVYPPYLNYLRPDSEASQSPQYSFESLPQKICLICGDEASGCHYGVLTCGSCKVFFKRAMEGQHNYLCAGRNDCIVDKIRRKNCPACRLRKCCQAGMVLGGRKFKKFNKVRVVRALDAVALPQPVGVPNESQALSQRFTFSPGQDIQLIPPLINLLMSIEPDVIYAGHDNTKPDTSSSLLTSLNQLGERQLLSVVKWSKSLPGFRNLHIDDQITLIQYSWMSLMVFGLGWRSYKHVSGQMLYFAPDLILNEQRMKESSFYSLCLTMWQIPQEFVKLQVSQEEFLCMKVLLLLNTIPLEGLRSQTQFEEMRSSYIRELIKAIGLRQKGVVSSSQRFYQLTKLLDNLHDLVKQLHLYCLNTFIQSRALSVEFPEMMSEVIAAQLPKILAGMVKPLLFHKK
Put plainly: PR binding. The following applies: binding not observed at these concentrations.

The test system of data set [8] is rat model of corticosterone-induced insulin resistance. The experiment in a line: Rat model of corticosterone-induced insulin resistance. It counts as in vivo. The following applies: oral, doses giving systemic exposure similar to phase I studies.
The test system of data set [9] is EG7 tumor cells. The experiment in a line: EG7 tumor model in WT mice, αPD1 (RMP1-14) +/- relacorilant. It counts as in vivo, mouse. The note with it: for TNFα levels in terminal sera: sera collected between days 11 and 21. How it is done: The combination of PD1 antagonist antibody (RMP1-14) and relacorilant was assessed in the EG7 tumor model. Most reports have assessed αPD1 effects on EG7 cells in WT mice without added cortisol, so this more established model was used.
as §2

For data set [10], the system named is human stimulated PBMCs. The experiment in a line: Restoration of TNF-α production in stimulated PBMCs suppressed by GR agonists. The note with it: PBMC, read-out: restoration of TNF-α production, half maximal effect. Type of data set: cell-based.
The target in data set [11] is T1, GR. Put plainly: GR inverse agonism.
The subject of data set [12] is EG7 tumor cells. The experiment in a line: EG7 syngeneic model in OT-1/Rag-/- mice with cortisol in drinking water. How it is done: The suppressive effects of cortisol on CD8+ cytotoxic T-cells, and the ability of relacorilant to promote T-cell activation, were assessed in the EG7 syngeneic mouse model. EG7 tumor cells express ovalbumin, and the model was studied both in WT or OT-1/Rag^-/- mice. The OT-1/Rag^-/- mice only have T-cells expressing a transgenic ovalbumin-specific TCR. […] The combination of PD1 antagonist antibody (RMP1-14) and relacorilant was assessed in the EG7 tumor model.

Consider 3 compounds from patent publication US20230346774A1, “METHODS OF STIMULATING AN ANTI-TUMOR RESPONSE USING A SELECTIVE GLUCOCORTICOID RECEPTOR MODULATOR” (Corcept Therapeutics Incorporated, priority 2020, published 2023).

On to `C[C@]12C=CC(=O)C=C1CC[C@@H]1[C@@H]2C(=O)C[C@@]2(C)[C@H]1CC[C@]2(O)C(=O)CO` [prednisone, reference compound], for which the “transcriptional effect in whole blood” value in [1] (25 mg dose, 4 hours post dose) is listed as “large transcriptional effect”. For the same compound, in data set [1], the NLR result is on record as “rapid an acute increase”.

Regarding `Cn1cc(S(=O)(=O)N2CCC3=Cc4c(cnn4-c4ccc(F)cc4)C[C@]3(C(=O)c3cc(C(F)(F)F)ccn3)C2)cn1` [relacorilant, (R)-(1-(4-fluorophenyl)-6-((1-methyl-1H-pyrazol-4-yl)sulfonyl)-4,4a,5,6,7,8-hexahydro-1H-pyrazolo[3,4-g]isoquinolin-4a-yl)(4-(trifluoromethyl)pyridin-2-yl)methanone], in data set [2], the “cytokines and chemokines (including IFNγ, IL-1β, IL-1α, IL-6)” value is reported as “reversed”; the “CD3+ cell surface receptors” value was “restoration”; the “inflammatory cytokines such as TNF-α” value is “rescued”; the “Expression of CD137 (aka 41-BB) on CD8+ cells” value is reported as “rescued”. For the same compound, in [2], the “CD8+ T-cell activation” value is “restored” and the “pro-inflammatory cytokine secretion (TNFα, IFNγ)” value was “restored”. In addition, in [3], the “effects of excess cortisol on hypertension and insulin resistance” value is on record as “demonstrated the ability to reverse”. In data set [4], the “NLR in cancer patients with elevated baseline NLR” value was “lowers”. Also, in data set [5], the IC50 was 0.15 nM. Besides, the tolerability entry in data set [1] (healthy volunteers) is recorded as “demonstrated tolerability”. Moreover, the NLR result in [1] is reported as “does not affect NLR”. Besides, in data set [1] (prednisone challenge), the “GR agonist induction of FKBP5 mRNA in whole blood” value is reported as “reversed” and the “GR agonist suppression of eosinophil abundance in whole blood” value is listed as “reversed”. Further, the “prednisone-induced increase in the NLR” value in [1] (relacorilant co-dosed with prednisone) is “reversed”. Further, the “PD1 expression in splenic CD8 T-cells” value in data set [6] (7 days) was “sufficient to induce”. In addition, the “PD-1+ as % CD8+ cells in spleens” value in data set [6] (vs Vehicle Control) is “significant (p≤0.05) increase”. Moreover, in data set [7], the IC50 was > 1000 nM. In addition, the glucose and insulin result in data set [8] is “normalized glucose and insulin”. Also, the “circulating IL-10” value in data set [9] (P<0.002) is recorded as “decreased”. For the same compound, the αPD1 efficacy result in data set [9] (P=0.007) is listed as “increased”. The “effect on tumor growth” value in data set [9] (WT mice without added cortisol) is recorded as “no significant effect”. The “TNFα levels in terminal sera” value in data set [9] is reported as “increased”. Also, the EC50 in data set [10] worked out at 9 nM. Also, in data set [11], the GR inverse agonism result is given as “not observed”.

As to cortisol, in [2] (400 nM cortisol, PHA or αCD3+IL-12), the “phenotypic effects of stimulation” value is “potently suppressed nearly every phenotypic effect of stimulation”. Moreover, in data set [2], the “cytokines and chemokines (including IFNγ, IL-1β, IL-1α, IL-6)” value was “suppressed”; the “CD3+ cell surface receptors” value is on record as “suppression”; the “inflammatory cytokines such as TNF-α” value is “suppressed”; the “Expression of CD137 (aka 41-BB) on CD8+ cells” value is “reduced”. Besides, in [2], the “CD8+ T-cell activation” value is “inhibited” and the “pro-inflammatory cytokine secretion (TNFα, IFNγ)” value is given as “inhibited”. In [12] (OT-1/Rag-/- mice), the “mice with measurable tumors by day 10” value is on record as “All mice” and the tumor growth entry is “rapid tumor growth”. For the same compound, in data set [12] (OT-1/Rag-/- mice given cortisol +/- relacorilant), the “histologically confirmed complete remissions” value is reported as “none”. In [12] (OT-1/Rag-/- mice, 0/5 in controls), the Premature deaths is listed as 2/5. For the same compound, the “tumor growth on excess cortisol administration” value in [9] (cortisol added to relacorilant treatment) was “restored tumor growth”. In addition, in data set [9] (cortisol in drinking water of wild type (WT) mice), the “tumor control or growth” value was “no effect on tumor control or growth”. Besides, the “TNFα levels in terminal sera” value in [9] is “suppressed”.
